For 51 compounds, IC50 results are on record in US20220235065A1 (Epizyme, Inc., priority 2016, published 2022).

Counter-ions that a name gives are not always drawn.

The target of this experiment is T1, recombinant purified human EHMT2 913-1193 (Homo sapiens, UniProt Q96KQ7).
T1 construct: Recombinant purified human EHMT2 913-1193 (55 μM) synthesized by Viva was used for all experiments; purchased Viva
T1 sequence (Q96KQ7 913-1193): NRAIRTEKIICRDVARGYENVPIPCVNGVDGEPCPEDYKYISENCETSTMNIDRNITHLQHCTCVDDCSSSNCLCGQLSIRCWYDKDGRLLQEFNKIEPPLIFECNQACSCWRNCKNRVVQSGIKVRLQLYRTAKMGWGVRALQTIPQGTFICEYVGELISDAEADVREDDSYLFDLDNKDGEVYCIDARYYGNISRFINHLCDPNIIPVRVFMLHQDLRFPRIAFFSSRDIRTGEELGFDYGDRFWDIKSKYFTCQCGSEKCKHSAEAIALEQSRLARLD
The experiment can be described thus: EHMT2 enzyme assay on histone peptide substrate (3H-SAM Flashplate). It is filed as biochemical. As to conditions: read-out: EHMT2 PEP (IC50 μM). As for the experimental part:
Recombinant purified human EHMT2 913-1193 (55 μM) synthesized by Viva was used for all experiments. Biotinylated histone peptides were synthesized by Biopeptide and HPLC-purified to >95% purity. Streptavidin Flashplates and seals were purchased from PerkinElmer and 384 Well V-bottom Polypropylene Plates were from Greiner. ^3H-labeled S-adenosylmethionine (3H-SAM) was obtained from American Radiolabeled Chemicals with a specific activity of 80 Ci/mmol. Unlabeled SAM and S-adenosylhomocysteine (SAH) were obtained from American Radiolabeled Chemicals and Sigma-Aldrich respectively. Flashplates were washed in a Biotek ELx-405 with 0.1% Tween. 384-well Flashplates and 96-well filter binding plates were read on a TopCount microplate reader (PerkinElmer). Compound serial dilutions were performed on a Freedom EVO (Tecan) and spotted into assay plates using a Thermo Scientific Matrix PlateMate (Thermo Scientific). Reagent cocktails were added by Multidrop Combi (Thermo Scientific).
General Procedure for EHMT2 Enzyme Assay on Histone Peptide Substrate.
10-point curves of test compounds were made on a Freedom EVO (Tecan) using serial 3-fold dilutions in DMSO, beginning at 2.5 mM (final top concentration of compound was 50 μM and the DMSO was 2%). A 1 μL aliquot of the inhibitor dilution series was spotted in a polypropylene 384-well V-bottom plate (Greiner) using a Thermo Scientific Matrix PlateMate (Thermo Scientific). The 100% inhibition control consisted of 1 mM final concentration of the product inhibitor S-adenosylhomocysteine (SAH, Sigma-Aldrich). Compounds were incubated for 30 minutes with 40 μL per well of 0.031 nM EHMT2 (recombinant purified human EHMT2 913-1193, Viva) in 1× assay buffer (20 mM Bicine [pH 7.5], 0.002% Tween 20, 0.005% Bovine Skin Gelatin and 1 mM TCEP). 10 μL per well of substrate mix comprising assay buffer, ^3H-SAM (3H-labeled S-adenosylmethionine, American Radiolabeled Chemicals, specific activity of 80 Ci/mmol), unlabeled SAM (American Radiolabeled Chemicals), and peptide representing histone H3 residues 1-15 containing C-terminal biotin (appended to a C-terminal amide-capped lysine, synthesized by Biopeptide and HPLC-purified to greater than 95% purity) were added to initiate the reaction (both substrates were present in the final reaction mixture at their respective Km values, an assay format referred to as “balanced conditions”). Reactions were incubated for 60 minutes at room temperature and quenched with 10 μL per well of 400 μM unlabeled SAM, then transferred to a 384-well streptavidin Flashplate (PerkinElmer) and washed in a Biotek ELx-405 well washer with 0.1% Tween after 60 minutes. 384-well Flashplates were read on a TopCount microplate reader (PerkinElmer).
IC50 curves were generated using triplicate wells per concentration of compound. The IC50 is the concentration of compound at which measured methylation is inhibited by 50% as interpolated from the dose response curves. IC50 values were calculated using a non-linear regression (variable slope-four parameter fit model) with by the following formula
where Top is fixed at 100% and Bottom is fixed to 0%, [I]=concentration of inhibitor, IC50=half maximal inhibitory concentration and n=Hill Slope.
`CNc1cc(C)nc(Nc2ccc(OC)c(-c3cn4c(n3)CN(C)CC4)c2)n1` [Compound 6]: the IC50 (commonly the concentration at which inhibition is half-maximal) is over 10 µM. In the case of `CNc1cc(C)nc(Nc2ccc(OC)c(-c3cn4c(n3)CNCC4)c2)n1` [Compound 7], the IC50 is 1 to 10 µM. For `CNc1cc(C)nc(Nc2ccc(OC)c(-c3nc4n(n3)CCNC4)c2)n1` [Compound 8, 2-N-(4-methoxy-3-[4H,5H,6H,7H-[1,2,4]triazolo[1,5-a]pyrazin-2-yl]phenyl)-4-N,6-dimethylpyrimidine-2,4-diamine hydrochloride], the IC50 was over 10 µM. The result for `CNc1cc(C)nc(Nc2ccc(OC)c(-c3nc4n(n3)CCN(C)C4)c2)n1` [Compound 9] reads over 10 µM; that for `CNc1cc(C)nc(Nc2ccc(OC)c(-n3ncc4c3CCN(C)C4)c2)n1` [Compound 10], 0.1 to 1 µM; that for `CNc1cc(C)nc(Nc2ccc(OC)c(-c3nnc(C)[nH]3)c2)n1` [Compound 11], over 10 µM.

Consider `CNc1cc(C)nc(Nc2ccc(OC)c(-c3cn[nH]c3)c2)n1` [Compound 12, 2-N-[4-methoxy-3-(1H-pyrazol-4-yl)phenyl]-4-N,6-dimethylpyrimidine-2,4-diamine], for which the IC50 was over 10 µM.

As for `CNc1cc(C)nc(Nc2ccc(OC)c(-n3cc4ccccc4n3)c2)n1` [Compound 146], the IC50 was over 10 µM.

Consider `CNc1cc(C)nc(Nc2ccc(OC)c(-n3cc4cc(Br)ccc4n3)c2)n1` [Compound 148], for which the IC50 lay within 1 to 10 µM.

As for `CNc1cc(C)nc(Nc2ccc(OC)c(-n3cc4cncc(C)c4n3)c2)n1` [Compound 151], the IC50 was in the range of 0.1 to 1 µM. For `CNc1cc(C)nc(Nc2ccc(OC)c(-c3ccc4nc(C)[nH]c4c3)c2)n1` [Compound 155], the IC50 is over 10 µM. The result for `CNc1cc(C)nc(Nc2ccc(OC)c(-c3ccc4cc(C)[nH]c4c3)c2)n1` [Compound 156] reads over 10 µM; that for `CNc1cc(C)nc(Nc2ccc(OC)c(-c3cc4ccncc4[nH]3)c2)n1` [Compound 157, N2-(4-methoxy-3-(1H-pyrrolo[2,3-c]pyridin-2-yl)phenyl)-N4,6-dimethylpyrimidine-2,4-diamine], under 0.1 µM. As for `CNc1cc(C)nc(Nc2ccc(OC)c(-c3cc4cnccc4n3C)c2)n1` [Compound 158], the figure is 0.1 to 1 µM; as for `CNCc1cn(-c2cc(Nc3nc(C)cc(NC)n3)ccc2OC)nn1` [Compound 159, N2-(4-methoxy-3-(4-((methylamino)methyl)-1H-1,2,3-triazol-1-yl)phenyl)-N4,6-dimethylpyrimidine-2,4-diamine], under 0.1 µM. Regarding `CNc1cc(C)nc(Nc2ccc(OC)c(-n3cc(CN(C)C)c(C)n3)c2)n1` [Compound 160], the IC50 is under 0.1 µM.

For `CNc1nc2cc(-n3cc(CN(C)C)nn3)c(OC)cc2n1C` [Compound 163], the IC50 fell in the range of 1 to 10 µM.

On to `CNc1cc(C)nc(Nc2ccc(OC)c(-n3cc(C(C)NC)nn3)c2)n1` (stereo not drawn) [Compound 164], for which the half-inhibitory concentration (IC50) fell in the range of 0.1 to 1 µM.

For the compound `CNc1cc(C)nc(Nc2ccc(OC)c(-n3cc(C(NC)C(F)(F)F)nn3)c2)n1` (stereo not drawn) [Compound 165], the IC50 was over 10 µM. `CNc1cc(C)nc(Nc2ccc(OC)c(-n3cc(C(C)(C)NC)nn3)c2)n1` [Compound 166]: the IC50 was over 10 µM. As for `CNc1ccnc(Nc2ccc(OC)c(-n3cnc(CN(C)C)c3)c2)n1` [Compound 170], the IC50 was 0.1 to 1 µM. As for `CNc1ccnc(Nc2ccc(OC)c(-n3cc(CN(C)C)nn3)c2)n1` [Compound 171], the IC50 was under 0.1 µM. Take `CCNCc1cn(-c2cc(Nc3nccc(NC)n3)ccc2OC)nn1` [Compound 172]: the IC50 is 0.1 to 1 µM.

Consider `CNc1ccnc(Nc2ccc(OC)c(-n3cc(CNCC4CC4)nn3)c2)n1` [Compound 173], for which the IC50 was in the range of 1 to 10 µM. Take `CNc1ccnc(Nc2ccc(OC)c(-c3cc4[nH]ncc4cn3)c2)n1` [Compound 174]: the IC50 is over 10 µM.

For the compound `CNc1ccnc(Nc2ccc(OC)c(-c3cc4[nH]ccc4cn3)c2)n1` [Compound 175, N2-(4-methoxy-3-(1H-pyrrolo[3,2-c]pyridin-6-yl)phenyl)-N4-methylpyrimidine-2,4-diamine], the IC50 is under 0.1 µM. The result for `CNc1ccnc(Nc2ccc(OC)c(-n3cc(C4CC4)nn3)c2)n1` [Compound 176] reads 1 to 10 µM; that for `CNc1ccnc(Nc2ccc(OC)c(-n3cc(C4COC4)nn3)c2)n1` [Compound 177], over 10 µM; that for `CNc1ccnc(Nc2ccc(OC)c(-c3ccc4cc[nH]c4c3)c2)n1` [Compound 178], over 10 µM. As for `CNCc1cnn(-c2cc3nc(NC)n(C)c3cc2OC)c1` [Compound 179], the figure is 0.1 to 1 µM; as for `CNCc1cnn(-c2cc(Nc3nccc(NC)n3)ccc2OC)c1` [Compound 181, N2-(4-methoxy-3-(4-((methylamino)methyl)-1H-pyrazol-1-yl)phenyl)-N4-methylpyrimidine-2,4-diamine], under 0.1 µM. As for `CNCc1cnn(-c2cc3nc(NC)cc(C4CCOCC4)c3cc2OC)c1` [Compound 184], the figure is 0.1 to 1 µM; as for `CCNCc1cnn(-c2cc(Nc3nccc(NC)n3)ccc2OC)c1` [Compound 185], 0.1 to 1 µM; as for `CNCc1cnn(-c2cc3c(cc2OC)C2(CCC2)C(N)=N3)c1` [Compound 186], under 0.1 µM. Regarding `CNCc1cnn(-c2cc3c(cc2OC)C2(CCC2)C(NC)=N3)c1` [Compound 187], the IC50 was under 0.1 µM.

For the compound `CNc1cc(C)nc(Nc2cnc(OC)c(-n3cc(C4CCCN4)cn3)c2)n1` (stereo not drawn) [Compound 188], the IC50 is 0.1 to 1 µM. The result for `CNc1ccnc(Nc2ccc(OC)c(-n3cc(CNC4CCC4)nn3)c2)n1` [Compound 191] reads 1 to 10 µM; that for `CNC1=Nc2cc(-n3cc([C@H]4CCCN4)nn3)c(OC)cc2C12CCC2` [Compound 192], under 0.1 µM. For the compound `COc1cc2c(cc1-n1cc([C@H]3CCCN3)nn1)N=C(N)C21CCC1` [Compound 193], the IC50 is under 0.1 µM. As to `COc1cc2c(cc1-n1cc(C3CCCN3)nn1)N=C(N)C21CCC1` (stereo not drawn) [Compound 194], the IC50 was under 0.1 µM. On to `COc1cc2c(cc1-n1cc([C@@H]3CCCN3)nn1)N=C(N)C21CCC1` [Compound 195], for which the IC50 lay in the range of 0.1 to 1 µM. `CNc1cc(C2CCOCC2)c2cc(OC)c(-n3cc(C4CCCN4)nn3)cc2n1` (stereo not drawn) [Compound 196]: the IC50 fell in the range of 0.1 to 1 µM. As for `CNc1cc(C)nc(Nc2ccc(OC)c(-c3[nH]c4cnccc4c3F)c2)n1` [Compound 199], the figure is under 0.1 µM. In the case of `CNc1cc(C)nc(Nc2ccc(OC)c(-c3[nH]c4cnccc4c3C)c2)n1` [Compound 200, N2-(4-methoxy-3-(3-methyl-1H-pyrrolo[2,3-c]pyridin-2-yl)phenyl)-N4,6-dimethylpyrimidine-2,4-diamine], the IC50 is under 0.1 µM. As for `CNc1cc(C)nc(Nc2ccc(OC)c(-c3cc4ncncc4[nH]3)c2)n1` [Compound 201], the figure is 1 to 10 µM. The result for `COc1cc2c(cc1-c1cc3ccncc3[nH]1)N=C(N)C21CCC1` [Compound 202] reads under 0.1 µM. As to `CNc1cc(C)nc(Nc2cnc(OC)c(-c3cc4ccncc4[nH]3)c2)n1` [Compound 204], the IC50 is 1 to 10 µM.

Take `COc1cc(NC2CCNCC2)ncc1-c1cc2ccncc2[nH]1` [Compound 205]: the IC50 is over 10 µM. The result for `CNc1cc(C)nc(Nc2ccc(OC)c(-c3cc4[nH]ccc4cn3)c2)n1` [Compound 206, N2-(4-methoxy-3-(1H-pyrrolo[3,2-c]pyridin-6-yl)phenyl)-N4,6-dimethylpyrimidine-2,4-diamine] reads under 0.1 µM; that for `CNc1cc(C)nc(Nc2ccc(OC)c(-c3cc4[nH]c(C)cc4cn3)c2)n1` [Compound 207], under 0.1 µM. The result for `COc1cc(NC2CCNCC2)ncc1-c1cc2[nH]ccc2cn1` [Compound 208] reads 1 to 10 µM.
